Tests used:
[1] = tested on: TK-10; assay: Cytotoxicity against human TK10 cells assessed as cell growth at 10 uM after 48 hrs by SRB assay relative to control; format: functional; settings: TK-10, 48 h, read-out: Activity
[2] = tested on: Hs-578T; assay: Cytotoxicity against human Hs 578T cells assessed as cell growth at 10 uM after 48 hrs by SRB assay relative to control; format: functional; settings: read-out: Activity
[3] = tested on: OVCAR-3; assay: Cytotoxicity against human OVCAR3 cells assessed as cell growth at 10 uM after 48 hrs by SRB assay relative to control; format: functional; settings: OVCAR-3, 48 h, read-out: Activity
[4] = tested on: KM12; assay: Cytotoxicity against human KM12 cells assessed as cell growth at 10 uM after 48 hrs by SRB assay relative to control; format: functional; settings: KM12, 48 h, read-out: Activity
[5] = tested on: SN12C; assay: Cytotoxicity against human SN12C cells assessed as cell growth at 10 uM after 48 hrs by SRB assay relative to control; format: functional; settings: read-out: Activity
[6] = tested on: HCT-15; assay: Cytotoxicity against human HCT15 cells assessed as cell growth at 10 uM after 48 hrs by SRB assay relative to control; format: functional; settings: HCT-15, 48 h, read-out: Activity
[7] = tested on: HCC 2998; assay: Cytotoxicity against human HCC2998 cells assessed as cell growth at 10 uM after 48 hrs by SRB assay relative to control; format: functional; settings: HCC 2998, 48 h, read-out: Activity
[8] = tested on: T47D; assay: Cytotoxicity against human T47D cells assessed as cell growth at 10 uM after 48 hrs by SRB assay relative to control; format: functional; settings: read-out: Activity
[9] = target: T1, Serine/threonine-protein kinase haspin (Homo sapiens, UniProt Q8TF76); assay: Inhibition of recombinant human haspin kinase domain expressed in bacteria using histone H3 (1 to 21 residues) peptide as substrate in presence of [gamma-33P]ATP
T1 sequence (Q8TF76 whole entry): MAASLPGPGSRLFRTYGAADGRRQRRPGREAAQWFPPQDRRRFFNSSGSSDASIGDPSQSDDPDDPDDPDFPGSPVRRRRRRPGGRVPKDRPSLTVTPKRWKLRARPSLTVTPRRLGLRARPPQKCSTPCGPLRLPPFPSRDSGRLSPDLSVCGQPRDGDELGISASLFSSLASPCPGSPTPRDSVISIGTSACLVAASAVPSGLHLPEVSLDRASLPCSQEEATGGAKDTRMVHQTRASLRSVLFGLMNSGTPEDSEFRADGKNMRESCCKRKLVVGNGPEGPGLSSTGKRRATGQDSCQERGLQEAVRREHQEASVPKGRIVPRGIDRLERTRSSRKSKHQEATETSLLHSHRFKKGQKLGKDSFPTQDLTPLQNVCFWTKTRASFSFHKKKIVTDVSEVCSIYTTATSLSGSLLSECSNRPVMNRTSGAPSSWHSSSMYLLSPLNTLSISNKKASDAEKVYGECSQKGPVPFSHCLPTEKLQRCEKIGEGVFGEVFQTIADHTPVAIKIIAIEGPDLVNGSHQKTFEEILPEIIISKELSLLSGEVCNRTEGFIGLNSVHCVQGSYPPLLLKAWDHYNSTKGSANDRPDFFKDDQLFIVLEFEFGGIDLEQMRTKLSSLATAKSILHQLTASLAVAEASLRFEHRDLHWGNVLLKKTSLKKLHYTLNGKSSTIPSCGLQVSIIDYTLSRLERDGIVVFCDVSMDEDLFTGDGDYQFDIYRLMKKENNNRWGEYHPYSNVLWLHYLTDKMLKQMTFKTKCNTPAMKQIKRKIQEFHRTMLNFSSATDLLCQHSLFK

[10] = target: Aurora kinase B (Homo sapiens, UniProt Q96GD4); assay: Inhibition of recombinant full length human aurora B expressed in baculovirus infected Sf9 insect cells assessed as residual activity at 10 uM using MBP as substrate in presence of [gamma-33P]ATP
Sequence of Aurora kinase B (Q96GD4 whole entry): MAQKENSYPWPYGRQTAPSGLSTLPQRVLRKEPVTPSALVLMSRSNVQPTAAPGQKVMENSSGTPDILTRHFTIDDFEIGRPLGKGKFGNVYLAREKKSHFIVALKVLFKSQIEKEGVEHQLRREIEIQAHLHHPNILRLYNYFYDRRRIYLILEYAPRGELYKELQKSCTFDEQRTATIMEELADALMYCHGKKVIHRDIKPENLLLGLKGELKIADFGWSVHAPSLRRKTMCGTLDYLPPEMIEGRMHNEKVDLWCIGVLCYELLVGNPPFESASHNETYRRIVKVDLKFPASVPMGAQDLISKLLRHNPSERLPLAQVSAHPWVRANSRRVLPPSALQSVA

[11] = tested on: HOP-92; assay: Cytotoxicity against human HOP92 cells assessed as cell growth at 10 uM after 48 hrs by SRB assay relative to control; format: functional; settings: HOP-92, 48 h, read-out: Activity
[12] = tested on: RPMI-8226; assay: Cytotoxicity against human RPMI8226 cells assessed as cell growth at 10 uM after 48 hrs by SRB assay relative to control; format: functional; settings: RPMI-8226, 48 h, read-out: Activity
[13] = tested on: SW-620; assay: Cytotoxicity against human SW620 cells assessed as cell growth at 10 uM after 48 hrs by SRB assay relative to control; format: functional; settings: SW-620, 48 h, read-out: Activity
[14] = target: Receptor-interacting serine/threonine-protein kinase 3 (Homo sapiens, UniProt Q9Y572); assay: Inhibition of recombinant full length human RIPK3 expressed in baculovirus infected Sf9 insect cells using MBP as substrate in presence of [gamma-33P]ATP
Sequence of Receptor-interacting serine/threonine-protein kinase 3 (Q9Y572 whole entry): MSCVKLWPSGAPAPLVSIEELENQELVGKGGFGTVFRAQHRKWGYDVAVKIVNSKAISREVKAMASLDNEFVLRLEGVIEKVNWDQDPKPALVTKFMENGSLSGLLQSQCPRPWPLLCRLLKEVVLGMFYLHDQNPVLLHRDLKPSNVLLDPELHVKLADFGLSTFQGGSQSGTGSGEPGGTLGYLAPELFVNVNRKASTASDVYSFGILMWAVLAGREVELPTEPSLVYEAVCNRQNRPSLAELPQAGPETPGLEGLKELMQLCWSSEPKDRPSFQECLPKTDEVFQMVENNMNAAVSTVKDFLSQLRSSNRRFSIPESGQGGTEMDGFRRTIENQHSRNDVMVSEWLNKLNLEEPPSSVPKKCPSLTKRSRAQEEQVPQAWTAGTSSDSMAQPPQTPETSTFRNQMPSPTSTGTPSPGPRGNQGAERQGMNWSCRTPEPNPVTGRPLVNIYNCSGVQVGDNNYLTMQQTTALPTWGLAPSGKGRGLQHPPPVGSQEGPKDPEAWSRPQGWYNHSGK

[15] = tested on: MOLT-4; assay: Cytotoxicity against human MOLT4 cells assessed as cell growth at 10 uM after 48 hrs by SRB assay relative to control; format: functional; settings: MOLT-4, 48 h, read-out: Activity
[16] = tested on: SK-MEL-28; assay: Cytotoxicity against human SK-MEL-28 cells assessed as cell growth at 10 uM after 48 hrs by SRB assay relative to control; format: functional; settings: SK-MEL-28, 48 h, read-out: Activity
[17] = tested on: UACC-257; assay: Cytotoxicity against human UACC257 cells assessed as cell growth at 10 uM after 48 hrs by SRB assay relative to control; format: functional; settings: UACC-257, 48 h, read-out: Activity
[18] = tested on: OVCAR-4; assay: Cytotoxicity against human OVCAR4 cells assessed as cell growth at 10 uM after 48 hrs by SRB assay relative to control; format: functional; settings: OVCAR-4, 48 h, read-out: Activity
[19] = tested on: SK-MEL-5; assay: Cytotoxicity against human SK-MEL-5 cells assessed as cell growth at 10 uM after 48 hrs by SRB assay relative to control; format: functional; settings: SK-MEL-5, 48 h, read-out: Activity
[20] = tested on: RXF 393; assay: Cytotoxicity against human RXF393 cells assessed as cell growth at 10 uM after 48 hrs by SRB assay relative to control; format: functional; settings: RXF 393, 48 h, read-out: Activity
[21] = tested on: PC-3; assay: Cytotoxicity against human PC3 cells assessed as cell growth at 10 uM after 48 hrs by SRB assay relative to control; format: functional; settings: PC-3, 48 h, read-out: Activity
[22] = tested on: A498; assay: Cytotoxicity against human A498 cells assessed as cell growth at 10 uM after 48 hrs by SRB assay relative to control; format: functional; settings: A498, 48 h, read-out: Activity
[23] = target: CDK2/Cyclin A2 (Homo sapiens, UniProt P24941); assay: Inhibition of full length human CDK2/cyclin A using histone H1 as substrate in presence of [gamma-33P]ATP; format: protein-complex assay
[24] = tested on: LOX IMVI; assay: Cytotoxicity against human LOXIMVI cells assessed as cell growth at 10 uM after 48 hrs by SRB assay relative to control; format: functional; settings: read-out: Activity
[25] = target: Cyclin-dependent kinase 5/CDK5 activator 1 (Homo sapiens) (UniProt Q00535+Q15078); assay: Inhibition of recombinant full length human CDK5/p25 expressed in bacteria assessed as residual activity at 10 uM using histone H1 as substrate in presence of [gamma-33P]ATP
Sequence of Cyclin-dependent kinase 5/CDK5 activator 1 (Homo sapiens) (Q00535 whole entry): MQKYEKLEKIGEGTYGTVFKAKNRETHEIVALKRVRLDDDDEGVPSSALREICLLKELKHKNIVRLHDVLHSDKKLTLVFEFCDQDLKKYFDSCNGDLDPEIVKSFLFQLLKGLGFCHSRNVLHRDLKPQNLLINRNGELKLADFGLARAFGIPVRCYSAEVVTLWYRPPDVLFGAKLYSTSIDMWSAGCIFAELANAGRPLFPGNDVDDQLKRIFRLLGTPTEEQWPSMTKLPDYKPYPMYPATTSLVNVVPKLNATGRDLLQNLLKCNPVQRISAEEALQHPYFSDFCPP
Sequence of Cyclin-dependent kinase 5/CDK5 activator 1 (Homo sapiens) (Q15078 99-307 partner limits assumed): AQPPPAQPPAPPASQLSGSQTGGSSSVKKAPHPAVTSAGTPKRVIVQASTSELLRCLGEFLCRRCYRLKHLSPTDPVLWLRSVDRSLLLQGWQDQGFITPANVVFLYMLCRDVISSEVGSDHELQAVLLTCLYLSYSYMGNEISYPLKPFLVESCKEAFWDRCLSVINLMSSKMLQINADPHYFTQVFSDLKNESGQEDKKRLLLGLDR

Row | Structure (SMILES) | growth at 10 µM [1] [%] | growth at 10 µM [2] [%] | growth at 10 µM [3] [%] | growth at 10 µM [4] [%] | growth at 10 µM [5] [%] | growth at 10 µM [6] [%] | growth at 10 µM [7] [%] | growth at 10 µM [8] [%] | IC50 [9] [µM] | Activity [10] [%] | growth at 10 µM [11] [%] | growth at 10 µM [12] [%] | growth at 10 µM [13] [%] | IC50 [14] [µM] | growth at 10 µM [15] [%] | growth at 10 µM [16] [%] | growth at 10 µM [17] [%] | growth at 10 µM [18] [%] | growth at 10 µM [19] [%] | growth at 10 µM [20] [%] | further results
1 | Cn1cc(C2=C(c3cn(CCCCCC(=O)O)c4ccccc34)C(=O)N(O)C2=O)c2ccccc21 | 107 | 102 | 104 | 99.3 | 95.2 | 96.5 | 110 | 85.4 | > 10 | 71 | 71.8 | 96.8 | 98.9 | > 10 | 92.6 | 106 | 102 | 94.5 | 97.8 | 111 | growth at 10 µM [21]: 76.6%; growth at 10 µM [22]: 91.9%; IC50 [23]: 4 µM; growth at 10 µM [24]: 80%; Activity [25]: 34%
2 | O=C1C2=C(C(=O)N1O)c1cn(c3ccccc13)CCCCCCn1cc2c2ccccc21 | 105 | 97.2 | 106 | 107 | 106 | 108 | 110 | 104 | > 10 | 97 | 79.6 | 92.9 | 98.6 | > 10 | 110 | 108 | 106 | 113 | 99.6 | 119 | growth at 10 µM [21]: 95.8%; growth at 10 µM [22]: 88.3%; IC50 [23]: > 10 µM; growth at 10 µM [24]: 79.3%; Activity [25]: 91%
3 | N#CCCCCCn1cc(C2=C(c3cn(CCCCCC#N)c4ccccc34)C(=O)N(O)C2=O)c2ccccc21 | 70 to 84.2 | 25 to 80 | 13 to 50.6 | 25 to 65.7 | 47 to 88.2 | 21 to 70.8 | 59 to 99.6 | 26 to 65.5 | > 10 | 75 | 25 | 39.1 | 31 to 62.5 | > 10 | 10 to 49.4 | 35 to 83.3 | 56 to 82.1 | 91.6 | 2 to 39.4 | 2 to 73.2 | growth at 10 µM [21]: 29 to 70.3%; growth at 10 µM [22]: 16 to 69.2%; IC50 [23]: > 10 µM; growth at 10 µM [24]: 19 to 30.5%; Activity [25]: 75%

— ChEMBL document CHEMBL4229455, “Synthesis and anticancer activity of novel bisindolylhydroxymaleimide derivatives with potent GSK-3 kinase inhibition” (Bioorg Med Chem, 2018)
